Laboratory results from patent publication US20040058168A1, “Method for incorporating anionic molecules into a substrate for increasing dispersibility of anionic molecules” (priority 2002, published 2004).

How the values were obtained:
[1] = Test-tube determination of anionic character: dye mixed with organoclay, clean clay or quat in water, centrifuged, judged visually; format: physicochemical; settings: for Ionic character of the dye concluded from the test tubes: conclusion from Table 1 observations
Procedure: Thus, the molecule or ion can be tested in order to determine whether it has an anionic character (and thus can undergo the present method) or a cationic character or a neutral character. In testing certain molecules or ions, the procedure described below was employed.
Using Jarocol Straw Yellow dye as a representative example, four 1 mg samples of the dye were weighed and placed in 4 test tubes.
Subsequently, 10 mL of water was added to each of the four test tubes, and all of the samples were mixed well for 30 seconds. The samples from each of the test tubes were then centrifuged for 15 minutes in a laboratory scale centrifuge.
The analysis herein was performed visually, since the six samples tested were dyes. […] For example, for a non-dye sample, the clay may be separated from the water, both parts may be taken to dryness, and the IR spectrum of each may be recorded.

[2] = Equivalence point of anionic dye added to organoclay (water phase begins to turn a weak color); format: physicochemical
Description: The objective of the present Example was not only to determine the equivalence points at a fixed clay:quat ratio for the four anionic dyes listed above, but also to determine the effects that varying the clay:quat ratio had on the dye equivalence. The equivalence point for each anionic dye was recognized as the moment when the water phase of the anionic dye/organoclay composition began to turn a weak color. In other words, the equivalence point for each dye indicated the point at which the anionic dye would bleed or fail to be dispersible when the dye/organoclay composition is placed in an aqueous environment. This equivalence point, then, also indicates the point at which the weak bonding sites on the clay have been satisfied.
Determination of the equivalence point for the four anionic dyes began with the preparation of the organoclay and the subsequent addition of the dye to form the anionic dye/organoclay compositions. The organoclay, having a clay:quat ratio of 1.0:0.77, was prepared by first heating 150 grams of clay slurry (wherein the clay slurry comprises 3.24 grams of bentonite clay and thus comprises 2.16% solids) on a hot plate to approximately 65° C. Simultaneously, 2.495 grams of quat were dissolved in hot water. The quat used in this Example was Adogen 442, and the solution contained a quat:water ratio of 1:20. The quat solution was placed on the same hot plate and heated to 65° C., while being stirred to aid in the dissolution of the quat.
The bentonite clay slurry was added to a Waring blender and was allowed to mix under high speed agitation (speed 6) for about 1 minute. The quat solution was then added slowly to the clay slurry and was allowed to react for approximately 25-30 minutes. After this time, the blender was stopped for a few seconds to ensure adequate floccing.
The process described above was repeated using several different clay:quat ratios including 1:0.5 and 1:0.6 (less quat than the experiment described above) and 1:0.9 (an excess of quat with respect to the experiment described above).

[3] = Clay:Quat Ratio of 1:0.77, 3.24 g bentonite clay, quat Adogen 442

Compound	Ionic character of the dye concluded from the test tubes [1]	Equivalence Point [2, 3] [grams]	further results
CN(C)c1ccc2nc3ccc(=[N+](C)C)cc-3sc2c1 [Methylene Blue, reference compound]	cationic in nature		
FD&C Blue No. 1	anionic in nature	0.3750	
O=C(O)c1nn(-c2ccc(S(=O)(=O)O)cc2)c(O)c1N=Nc1ccc(S(=O)(=O)O)cc1 [FD&C Yellow No. 5]	anionic in nature		
D&C Green No. 5		0.4853	
Cc1ccc(N=Nc2c([O-])c(C(=O)O)cc3ccccc23)c(S(=O)(=O)[O-])c1.[Na+].[Na+] [Lithol Rubine B]	requisite anionic character	0.4103	Equivalence Point ([2]; Clay:Quat Ratio of 1:0.5): 0.0693 grams; Equivalence Point ([2]; Clay:Quat Ratio of 1:0.6): 0.1471 grams; Color change of dye on incorporation into organoclay ([2]; clay:quat ratios of 1:0.77, 1:0.6 and 1:0.5): color change took place; Test Tube 3 (10 mg Quat) visual observation ([1]; 1 mg sample + 10 mg quat, 10 mL water, mixed 30 seconds, centrifuged 15 minutes): the quat layer was dark red and the water layer was clear; Test Tube 4 (Control, sample only) visual observation ([1]; 1 mg sample only, 10 mL water, mixed 30 seconds, centrifuged 15 minutes): Water was red
